Measurements as given in article PMC7559245 (iScience, 2020).

Test system: Kv2.1 channel
Test: whole-cell patch clamp in CHO-Kv2.[…] cells
Format: cell-based

For `CCN(CC)CCOC(=O)C(c1ccccc1)C1CCCCC1` (stereo not shown) [Dfe, drofenine], the IC50 was 9.53 µM.
